Data reported in patent US5736559A, “Biphenyl derivatives, pharmaceutical compositions containing these compounds and processes for preparing them” (Karl Thomae GmbH, priority 1991, dated 1998).
Where a name gives a salt, the structure may show the parent alone.

What was measured:
[1] = target: Fibrinogen binding to human thrombocytes; test: Fibrinogen binding to human thrombocytes; conditions: 125I fibrinogen; gel-filtered human platelets; ADP; 20 minutes at ambient temperature; read-out: Fibrinogen binding test IC50
Experimental: Fibrinogen binding to human thrombocytes The blood obtained by puncturing an antecubital vein is anticoagulated with trisodium citrate (final concentration: 13 mM) and centrifuged for 10 minutes at 170 xg. The supernatant platelet-rich plasma is poured onto a Sepharose 2B column (Pharmacia) and eluted with a solution of 90 mM common salt, 14 mM trisodium citrate, 5 mM glucose and 50 mM Tris(hydroxymethyl)aminomethane, adjusted to pH 7.4. The gel-filtered platelets (GFP) appearing before the plasma proteins are used for the binding experiments. 50 μl of a 60 mM calcium chloride solution, 50 μl of a 0.6 mM adenosine diphosphate solution, 100 μl of substance solution or solvent and 50 μl of fibrinogen solution (containing 3 μg of ^125 I fibrinogen) are added to 750 μl of GFP and incubated for 20 minutes at ambient temperature. The non-specific binding is determined in the presence of 3 mg/ml of cold fibrinogen. 900 μl of the incubated material are carefully pipetted onto 250 μl of silicon oil (AP 38: AR 20, 1:2 v/v, Wacker Chemie) in Eppendorf tubes and centrifuged for 2 minutes at 10,000 xg. The aqueous supernatant and some of the oil are drawn off, the tips of the tubes are cut off together with the platelet pellet and the quantity of bound fibrinogen is determined in a gamma counter. The concentration of substance which brings about a 50% inhibition in fibrinogen binding is determined from a series of concentrations and is given as the IC50 value.

[2] = tested on: thrombocyte (platelet) aggregation; test: Antithrombotic activity: collagen-induced thrombocyte aggregation in platelet rich plasma (Born and Cross); assay type: cell-based; conditions: Homo sapiens, platelet rich plasma from healthy test subjects, 10 minutes at 37° C. preincubation, 50% change in optical density, read-out: Inhibition of platelet aggregation EC50
Experimental: 2. Antithrombotic activity Method: Thrombocyte aggregation is measured in platelet rich plasma from healthy test subjects using the Born and Cross method (J. Physiol. 170, 397 (1964)). In order to inhibit coagulation the blood is mixed with sodium citrate 3.14% in a ratio by volume of 1:10. Collagen-induced aggregation: The course of the decrease in optical density of the platelet suspension is photometrically measured and recorded after the addition of the substance which triggers aggregation. The rate of aggregation is deduced from the gradient angle of the density curve. The point on the curve where there is maximum transmittance is used to calculate the optical density. The quantity of collagen used is as little as possible but sufficient to give an irreversible reaction curve. Standard commercial collagen produced by Hormonchemie of Munich is used. Before the addition of the collagen the plasma is incubated for 10 minutes at 37° C. with the substance. From the measurements obtained, an EC50 is determined graphically, relating to a 50% change in optical density in terms of the inhibition of aggregation.

| Compound | IC50 [1] | EC50 [2] |
| --- | --- | --- |
| COC(=O)C1CCC(NC(=O)c2ccc(-c3ccc(C(=N)N)cc3)cc2)CC1 (stereo not drawn) [6(87), 4-amidino-4'-[(4-methoxycarbonylcyclohexyl)-aminocarbonyl]biphenyl hydrochloride] | 3.8 µM | 0.06 µM |
| COC(=O)CCc1cccc(NC(=O)Cc2ccc(-c3ccc(C(=N)N)cc3)cc2)c1 [6(47), 4-amidino-4'-[[[3-(2-methoxycarbonylethyl)phenyl]-aminocarbonyl]methyl]biphenyl hydrochloride] | 4.9 µM | 42 µM |
| COC(=O)C1CCN(C(=O)COc2ccc(-c3ccc(C(=N)N)cc3)cc2)CC1 [6(48), 4-amidino-4'-[[(4-methoxycarbonylpiperidino)-carbonyl]methyloxy]biphenyl hydrochloride] | 25 µM | 0.59 µM |
| COC(=O)C1CCC(N(C)C(=O)c2ccc(-c3ccc(C(=N)N)cc3)cc2)CC1 (stereo not drawn) [6(98), 4-amidino-4'-[N-(4-methoxycarbonylcyclohexyl)-N-methylaminocarbonyl]biphenyl hydrochloride] |  | 0.37 µM |
| N=C(N)c1ccc(-c2ccc(OCC(=O)NCC(=O)O)cc2)cc1 [1(3), 4-amidino-4'-[[(carboxymethylamino)carbonyl]-methoxy]-biphenyl] | 1.8 µM | 13 µM |
| N=C(N)c1ccc(-c2ccc(CC(=O)Nc3cccc(CC(=O)O)c3)cc2)cc1 [1(5), 4-amidino-4'-[[(3-carboxymethylphenyl)-aminocarbonyl]methyl]biphenyl] | 65 µM | > 100 µM |
| N=C(N)c1ccc(-c2ccc(CC(=O)N3CCC(C(=O)O)CC3)cc2)cc1 [1(45), 4-amidino-4'-[(4-carboxypiperidino)-carbonylmethyl]biphenyl hydrochloride] | 0.22 µM | 2 µM |
| COC(=O)C1CCCN(C(=O)COc2ccc(-c3ccc(C(=N)N)cc3)cc2)C1 (stereo not drawn) [6(49), 4-amidino-4'-[[(3-methoxycarbonylpiperidino)-carbonyl]methyloxy]biphenyl hydrochloride] | 32 µM | 36 µM |
| COC(=O)Cc1cccc(NC(=O)c2ccc(-c3ccc(C(=N)N)cc3)cc2)c1 [6(4), 4-amidino-4'-[[3-(methoxycarboxylmethyl)phenyl]-aminocarbonyl]biphenyl hydrochloride] | 47 µM | 4.4 µM |
| COC(=O)CCCC(=O)Nc1ccc(-c2ccc(C(=N)N)cc2)cc1 [6(1), 4-amidino-4'-(4-methoxycarbonylbutyrylamino)-biphenyl hydrochloride] | 5.6 µM | 3.7 µM |
| COC(=O)C1CCN(C(=O)c2ccc(-c3ccc(C(=N)N)cc3)cc2)CC1 [6(81), 4-amidino-4'-[(4-methoxycarbonylpiperidino)-carbonyl]biphenyl] | 25 µM | 34 µM |
| N=C(N)c1ccc(-c2ccc(OCC(=O)N3CCC(C(=O)O)CC3)cc2)cc1 [1(6), 4-amidino-4'-[[(4-carboxypiperidino)carbonyl]-methyloxy]biphenyl] | 0.33 µM | 1.2 µM |
| CN(C(=O)c1ccc(-c2ccc(C(=N)N)cc2)cc1)C1CCC(C(=O)O)CC1 (stereo not drawn) [1(94), 4-amidino-4'-[N-(4-carboxycyclohexyl)-N-methyl-aminocarbonyl]biphenyl] |  | 0.04 µM |
| CCOC(=O)CC1CCN(C(=O)c2ccc(-c3ccc(C(=N)NC(=O)OCC)cc3)cc2)CC1 [8(7), 4-(N-ethoxycarbonylamidino)-4'-[(4-ethoxycarbonyl-methylpiperidino)carbonyl]biphenyl] |  | > 10 µM |

The remaining molecules from weak to strong by IC50 [1], led by results:

| IC50 [1] | Compound | EC50 [2] |
| --- | --- | --- |
| 27 µM | COC(=O)CCN1CCN(C(=O)c2ccc(-c3ccc(C(=N)N)cc3)cc2)CC1 [6(75), 4-amidino-4'-[[(4-(2-methoxycarbonylethyl)-piperazino]carbonyl]biphenyldi hydrochloride] | 3.2 µM |
| 18 µM | COC(=O)CCNC(=O)COc1ccc(-c2ccc(C(=N)N)cc2)cc1 [6(3), 4-amidino-4'-[[(2-methoxycarbonylethyl)-aminocarbonyl]methyloxy]biphenyl h ydrochloride] | 17 µM |
| 16 µM | COC(=O)CC1CCCN(C(=O)c2ccc(-c3ccc(C(=N)N)cc3)cc2)C1 (stereo not drawn) [6(52), 4-amidino-4'-[(3-methoxycarbonylmethylpiperidino)-carbonyl]biphenyl hydrochloride] | 38 µM |
| 7.4 µM | COC(=O)CCCCNC(=O)c1ccc(-c2ccc(C(=N)N)cc2)cc1 [6(72), 4-amidino-4'-[(4-methoxycarbonylbutyl)amino-carbonyl]biphenyl hydrochloride] | 3.4 µM |
| 5.9 µM | COC(=O)C1CCN(C(=O)Cc2ccc(-c3ccc(C(=N)N)cc3)cc2)CC1 [6(56), 4-amidino-4'-[(4-methoxycarbonylpiperidino)-carbonylmethyl]biphenyl hydrochloride] | 4.9 µM |
| 5.2 µM | COC(=O)CCCOc1ccc(-c2ccc(C(=N)N)cc2)cc1 [6(8), 4-amidino-4'-(3-methoxycarbonylpropyloxy)biphenyl dihydrogencarbonate] | 3.4 µM |
| 3.1 µM | N=C(N)c1ccc(-c2ccc(NS(=O)(=O)NCCC(=O)O)cc2)cc1 [1(69), 4-amidino-4'-[(2-carboxyethyl)aminosulphonyl-amino]biphenyl] | 12 µM |
| 1.3 µM | COc1ccc(CCNC(=O)C(CC(=O)O)NC(=O)CNC(=O)c2ccc(-c3ccc(C(=N)N)cc3)cc2)cc1 (stereo not drawn) [Example 3, 4-Amidino-4'-[[[2-carboxy-1-[[2-(4-methoxyphenyl)-ethyl]aminocarbonyl]ethylamino]carbonylmethyl]-aminocarbonyl]biphenyl hydrochloride] | 16 µM |
| 0.8 µM | NCc1ccc(-c2ccc(C(=O)N3CCC(CC(=O)O)CC3)cc2)cc1 [10(1), 4-aminomethyl-4'-[(4-carboxymethylpiperidino)-carbonyl]biphenyl hydrochloride] | 1.8 µM |
| 0.56 µM | N=C(N)c1ccc(-c2ccc(C(=O)N3CCN(CCC(=O)O)CC3)cc2)cc1 [1(68), 4-amidino-4'-[[4-(2-carboxyethyl)piperazino]-carbonyl]biphenyl dihydrochloride] | 3.4 µM |
| 0.35 µM | N=C(N)c1ccc(-c2ccc(OCC(=O)NCCC(=O)O)cc2)cc1 [1(4), 4-amidino-4'-[[(2-carboxyethyl)aminocarbonyl]-methyloxy]biphenyl] | 1.7 µM |
| 0.29 µM | N=C(N)c1ccc(-c2ccc(CC(=O)NCCC(=O)O)cc2)cc1 [Example 1, 4-Amidino-4'-[[(2-carboxyethyl)aminocarbonyl]methyl]-biphenyl] | 1.1 µM |
| 0.22 µM | N=C(N)c1ccc(-c2ccc(C(=O)NCCCCC(=O)O)cc2)cc1 [1(65), 4-amidino-4'-[(4-carboxybutyl)aminocarbonyl]-biphenyl hydrochloride] | 2.4 µM |
| 0.21 µM | N=C(N)c1ccc(-c2ccc(OCCCCCC(=O)O)cc2)cc1 [Example 2, 4-Amidino-4'-(5-carboxypentyloxy)biphenyl hydrochloride] | 10 µM |
| 0.18 µM | N=C(N)c1ccc(-c2ccc(C(=O)N3CCN(CC(=O)O)CC3)cc2)cc1 [1(67), 4-amidino-4'-[(4-carboxymethylpiperazino)-carbonyl]biphenyl hydrochloride] | 0.35 µM |
| 0.046 µM | N=C(N)c1ccc(-c2ccc(OCCCCC(=O)O)cc2)cc1 [2(2), 4-amidino-4'-(4-carboxybutyloxy)biphenyl] | 45 µM |
